Measured values from patent US6093838A, “Amines substituted with a dihydro-benzofuranyl or with a dihydro-isobenzofuranyl group, an aryl or heteroaryl group and an alkyl group, having retinoid-like biological activity” (Allergan Sales, Inc., priority 1999, dated 2000).
pEC50, pKi: −log10 of the molar value.

How the values were obtained:
RARγ = target: T1, RARγ (Homo sapiens, UniProt P13631); experiment: ligand binding assay, RARγ; settings: read-out: RAR Bind. Ki γ
T1 sequence (P13631 1-454): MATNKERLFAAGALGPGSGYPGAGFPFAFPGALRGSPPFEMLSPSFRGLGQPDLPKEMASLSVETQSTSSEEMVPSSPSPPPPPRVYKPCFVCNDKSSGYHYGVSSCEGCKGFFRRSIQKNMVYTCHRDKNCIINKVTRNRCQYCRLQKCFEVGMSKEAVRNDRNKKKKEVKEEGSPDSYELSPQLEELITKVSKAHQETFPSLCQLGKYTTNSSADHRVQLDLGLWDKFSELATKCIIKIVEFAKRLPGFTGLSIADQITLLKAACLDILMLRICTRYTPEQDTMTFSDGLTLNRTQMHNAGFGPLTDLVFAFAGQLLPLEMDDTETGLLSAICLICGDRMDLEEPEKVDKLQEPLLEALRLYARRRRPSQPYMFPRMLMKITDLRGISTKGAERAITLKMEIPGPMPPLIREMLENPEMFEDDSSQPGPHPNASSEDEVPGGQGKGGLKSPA
From the text: (§1) Other assays described below, measure the ability of the compounds of the present invention to bind to, and/or activate various retinoid receptor subtypes. When in these assays a compound binds to a given receptor subtype and activates the transcription of a reporter gene through that subtype, then the compound is considered an agonist of that receptor subtype. […] In the below described assays the ability of the compounds to bind to RARα, RARβ, RARγ, RXRα, RXRβ and RXRγ receptors, and the ability or inability of the compounds to activate transcription of a reporter gene through these receptor subtypes can be tested. […] However, some of the compounds of the invention may behave as retinoid antagonists or partial antagonists and/or as inverse agonists. Because of the complex distribution of the different retinoid receptors in various organs of the mammalian body partial agonists and partial antagonists and compounds which have the characteristics of both may lend themselves to particularly useful therapeutic applications and may avoid serious side effects of conventional retinoid drugs.
(§2) A holoreceptor transactivation assay and a ligand binding assay which measure the antagonist/agonist like activity of the compounds of the invention, or their ability to bind to the several retinoid receptor subtypes, respectively, are described in published PCT Application No. WO WO93/11755 (particularly on pages 30-33 and 37-41) published on Jun. 24, 1993, the specification of which is also incorporated herein by reference. A detailed experimental procedure for holoreceptor transactivations has been described by Heyman et al. Cell 68, 397-406, (1992); Allegretto et al. J. Biol. Chem. 268, 26625-26633, and Mangelsdorf et al. The Retinoids: Biology, Chemistry and Medicine, pp 319-349, Raven Press Ltd., New York, which are expressly incorporated herein by reference. The results obtained in this assay are expressed in EC50 numbers, as they are also in the chimeric receptor transactivation assay. The results of ligand binding assay are expressed in Kd numbers. (See Cheng et al. Biochemical Pharmacology Vol. 22 pp 3099-3108, expressly incorporated herein by reference.)
(§3) Table 1 discloses the activity of certain exemplary compounds of the invention in the above-described chimeric receptor transactivation assay, holoreceptor transactivation assay and a ligand binding assays. Particularly, the transactivation data pertaining to RAR receptors were obtained in the chimeric assay, and the data pertaining to transactivation of RXR receptors were obtained in the holoreceptor transactivation assay.

RARβ = target: T2, RARβ (Homo sapiens, UniProt P10826); experiment: ligand binding assay, RARβ; settings: read-out: RAR Bind. Ki β
T2 sequence (P10826 1-448 isoform P10826-2): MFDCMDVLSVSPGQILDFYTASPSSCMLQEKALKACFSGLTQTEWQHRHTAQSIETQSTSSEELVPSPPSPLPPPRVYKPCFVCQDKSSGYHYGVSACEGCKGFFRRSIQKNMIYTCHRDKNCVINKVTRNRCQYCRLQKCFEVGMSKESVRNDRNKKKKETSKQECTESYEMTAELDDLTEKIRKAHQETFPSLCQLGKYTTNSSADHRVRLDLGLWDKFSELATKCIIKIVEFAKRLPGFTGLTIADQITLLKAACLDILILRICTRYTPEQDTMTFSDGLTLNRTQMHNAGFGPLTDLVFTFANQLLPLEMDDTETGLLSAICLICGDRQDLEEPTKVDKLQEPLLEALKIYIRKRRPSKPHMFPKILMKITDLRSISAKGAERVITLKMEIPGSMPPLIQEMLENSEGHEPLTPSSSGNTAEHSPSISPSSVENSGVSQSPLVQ
From the text: as §1, §2, §3

RXRγ = target: T3, RXRγ (Mus musculus, UniProt P28705); experiment: holoreceptor transactivation assay, RXRγ; assay type: cell-based; settings: for pEC50: holoreceptor transactivation, RXRγ, read-out: RXR Trans. EC50 γ; for Emax: relative to 10^-6 M cyclopropyl penta-2,4-dienoic acid reference (RXRs), read-out: % efficacy (RXRγ transactivation)
T3 construct: expressed in transfected cells
T3 sequence (P28705 1-463): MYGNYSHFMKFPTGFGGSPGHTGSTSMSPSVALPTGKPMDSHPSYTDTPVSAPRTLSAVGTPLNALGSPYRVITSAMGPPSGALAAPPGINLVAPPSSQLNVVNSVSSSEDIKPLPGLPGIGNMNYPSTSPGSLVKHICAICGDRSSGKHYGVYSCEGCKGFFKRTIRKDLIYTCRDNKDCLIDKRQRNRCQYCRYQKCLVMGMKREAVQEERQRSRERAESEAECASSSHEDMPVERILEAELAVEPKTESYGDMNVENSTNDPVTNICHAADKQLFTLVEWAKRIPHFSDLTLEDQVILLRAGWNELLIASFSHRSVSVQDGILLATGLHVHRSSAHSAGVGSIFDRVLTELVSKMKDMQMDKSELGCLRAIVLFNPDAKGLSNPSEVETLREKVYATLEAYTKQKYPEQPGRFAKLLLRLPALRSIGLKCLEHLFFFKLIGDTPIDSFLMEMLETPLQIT
From the text: as §1, §2, §3

Row | SMILES | pKi (RARγ) | pKi (RARβ) | pEC50 (RXRγ) | Emax (RXRγ) [%]
1 | CCN(c1ccc(C(=O)O)cc1)c1cc(C)c2c(c1)C(C)(C)CO2 [Compound 27, 4-[Ethyl-(3,3,7-trimethyl-2,3-dihydro-benzofuran-5-yl)-amino]-benzoic acid] | < 4.52 | < 4.52 | < 6.00 | –
2 | CCc1cc(N(CC)c2ccc(C(=O)O)cc2)cc2c1OCC2(C)C [Compound 29, 4-[Ethyl-(3,3-dimethyl-7-ethyl-2,3-dihydro-benzofuran-5-yl)-amino]-benzoic acid] | 5.08 | < 5.00 | 6.16 | 130
3 | CC(C)c1cc(N(C)c2ccc(C(=O)O)cc2)cc2c1OCC2(C)C [Compound 30, 4-[Methyl-(3,3-dimethyl-7-isopropyl-2,3-dihydro-benzofuran-5-yl)-amino]-benzoic acid] | 5.48 | < 4.52 | < 6.00 | 70
4 | CCN(c1ccc(C(=O)O)cc1)c1cc(C(C)C)c2c(c1)C(C)(C)CO2 [Compound 31, 4-[Ethyl-(3,3-dimethyl-7-isopropyl-2,3-dihydro-benzofuran-5-yl)-amino]-benzoic acid] | 5.40 | 4.54 | 7.07 | 125
5 | CCN(c1ccc(C(=O)O)cc1)c1cc(C(C)(C)C)c2c(c1)C(C)(C)CO2 [Compound 32, 4-[Ethyl-(7-t-butyl-3,3-dimethyl-2,3-dihydro-benzofuran-5-yl)-amino]-benzoic acid] | 5.70 | < 6.00 | 6.64 | 122
6 | CCc1cc(N(c2ccc(C(=O)O)cc2)C(C)C)cc2c1OCC2(C)C [Compound 42, 4-[Isopropyl-(3,3-dimethyl-7-ethyl-2,3-dihydro-benzofuran-5-yl)-amino]-benzoic acid] | 5.31 | < 5.00 | 6.29 | 132
7 | CC(C)c1cc(N(c2ccc(C(=O)O)cc2)C(C)C)cc2c1OCC2(C)C [Compound 43] | 5.59 | < 5.00 | 7.72 | 108
8 | CC(C)N(c1ccc(C(=O)O)cc1)c1cc(C(C)(C)C)c2c(c1)C(C)(C)CO2 [Compound 44, 4-[Isopropyl-(7-t-butyl-3,3-dimethyl-2,3-dihydro-benzofuran-5-yl)-amino]-benzoic acid] | 5.80 | < 6.00 | 7.70 | 48
9 | Cc1c(N(c2ccc(C(=O)O)cc2)C(C)C)cc2c(c1C(C)(C)C)OCC2(C)C [Compound 73, 4-[Isopropyl-(7-t-butyl-3,3,6-trimethyl-2,3-dihydro-benzofuran-5-yl)-amino]-benzoic acid] | 5.57 | < 5.00 | 7.77 | 97
10 | CCN(c1ccc(C(=O)O)cc1)c1ccc2c(c1)C(C)(C)OC2(C)C [Compound 83, 4-[Ethyl-(1,1,3,3-tetramethyl-1,3-dihydro-isobenzofuran-5-yl)-amino]-benzoic acid] | < 5.00 | < 5.00 | 7.20 | 140
11 | CCCN(c1ccc(C(=O)O)cc1)c1ccc2c(c1)C(C)(C)OC2(C)C [Compound 84, 4-[n-Propyl-(1,1,3,3-tetramethyl-1,3-dihydro-isobenzofuran-5-yl)-amino]-benzoic acid] | < 5.00 | < 5.00 | 7.29 | 124
12 | CCCCN(c1ccc(C(=O)O)cc1)c1ccc2c(c1)C(C)(C)OC2(C)C [Compound 85, 4-[n-Butyl-(1,1,3,3-tetramethyl-1,3-dihydro-isobenzofuran-5-yl)-amino]-benzoic acid] | < 5.00 | < 5.00 | 6.15 | 197
13 | CC(C)N(c1ccc(C(=O)O)cc1)c1ccc2c(c1)C(C)(C)OC2(C)C [Compound 87, 4-[i-Propyl-(1,1,3,3-tetramethyl-1,3-dihydro-isobenzofuran-5-yl)-amino]-benzoic acid] | < 5.00 | < 5.00 | 6.12 | 134
